Data: patent US9957271B2, “Substituted bicyclic aza-heterocycles and analogues as sirtuin modulators” (GlaxoSmithKline, LLC, priority 2012, dated 2018)

Key:
SIRT1 [1] = target: T1, SIRT1 (Homo sapiens, UniProt Q96EB6); experiment: Trp mass spectrometry assay of SIRT1 activity; type: biochemical; details: Trp assay; for Trp EC1.5 (μM): concentration giving 150% activation of SIRT1; for Emax: percent maximum fold activation, read-out: Trp % Fold Act
T1 sequence (Q96EB6 1-747): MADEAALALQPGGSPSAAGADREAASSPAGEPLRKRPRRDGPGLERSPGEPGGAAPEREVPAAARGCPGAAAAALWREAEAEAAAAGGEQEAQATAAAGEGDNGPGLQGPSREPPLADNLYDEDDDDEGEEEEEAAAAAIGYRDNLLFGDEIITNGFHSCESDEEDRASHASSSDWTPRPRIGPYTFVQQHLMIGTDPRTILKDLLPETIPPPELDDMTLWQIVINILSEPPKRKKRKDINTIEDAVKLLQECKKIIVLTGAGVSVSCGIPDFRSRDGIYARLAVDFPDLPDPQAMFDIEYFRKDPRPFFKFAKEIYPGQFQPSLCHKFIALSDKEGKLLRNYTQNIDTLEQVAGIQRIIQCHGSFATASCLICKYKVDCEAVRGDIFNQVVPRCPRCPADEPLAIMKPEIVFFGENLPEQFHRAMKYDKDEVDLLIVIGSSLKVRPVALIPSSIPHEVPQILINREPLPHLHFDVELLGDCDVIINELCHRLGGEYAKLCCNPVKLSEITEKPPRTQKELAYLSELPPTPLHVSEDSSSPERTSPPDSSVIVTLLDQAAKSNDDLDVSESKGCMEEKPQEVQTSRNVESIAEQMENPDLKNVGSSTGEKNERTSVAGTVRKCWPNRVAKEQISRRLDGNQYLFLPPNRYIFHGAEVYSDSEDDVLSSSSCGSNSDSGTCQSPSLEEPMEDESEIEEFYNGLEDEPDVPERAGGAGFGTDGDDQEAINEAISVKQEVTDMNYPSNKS
In short: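 Activation readout: EC1.5 (concentration raising activity 50% over control) and percent maximum activation, from mass-spec quantitation of OAADPR or deacetylated Trp peptide. Reaction: 0.5 μM acetylated Trp peptide, 120 μM βNAD+, 10 nM bacterially expressed N-His SIRT1, pH 7.5 HEPES buffer with […], 25 min at 25° C.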

SIRT1 [2] = target: T1, SIRT1; experiment: TAMRA based mass spectrometry assay of SIRT1 activity; type: biochemical; details: TAMRA assay; for TAMRA EC1.5 (μM): concentration giving 150% activation of SIRT1; for Emax: percent maximum fold activation, read-out: TAMRA % Fold Act
In short: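 Deacetylation of a biotinylated, TAMRA-tagged p53-based peptide (0.5 μM) by 10 nM His-tagged SIRT1 with 120 μM βNAD+, 25 °C for 25 min, pH 8 Tris-acetate buffer, across a compound concentration range. Quenched by formic acid and read by mass spec as product peptide or OAADPR; activity relative to DMSO reactions, nicotinamide defining maximal inhibition.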

Compound | Trp EC1.5 (μM) (SIRT1 [1]) | Emax (SIRT1 [1]) | TAMRA EC1.5 (μM) (SIRT1 [2]) | Emax (SIRT1 [2])
Cc1cc(NC(=O)c2cnc3ccc(-c4ccccc4OC[C@H](O)CO)nn23)nc(C)n1 [Compound 832] | B (EC1.5 1-25 μM) | < 350% | A (EC1.5<1 μM) | ≥ 350%
O=C(Nc1ccncn1)c1cnc2ccc(-c3ccccc3OC[C@H](O)CO)nn12 [Compound 833] | B (EC1.5 1-25 μM) | < 350% | B (EC1.5 1-25 μM) | ≥ 350%
